Assay results from US20250144067A1, “PERSONALIZED STARVATION THERAPY FOR CANCER” (Faeth Therapeutics, Inc., priority 2021, published 2025).
Where a name gives a salt, the structure may show the parent alone. Read-outs that look alike come from different tables or passages of the source.

Experiments:
[1] = test system: NCI-H292 lung cancer cells; assay: FDA drug screening, complete media vs cholesterol-free media without statin (TABLE 1); format: cell-based, human
[2] = test system: NCI-H292 lung cancer cells; assay: FDA drug screening, complete media vs cholesterol-free media with simvastatin (TABLE 2); format: cell-based, human
[3] = Complete minus Cholesterol-free, >0 enhanced anti-cancer activity, about 0 neutral, <0 antagonist
[4] = NCI-H292 cells, cholesterol-free media without statin
[5] = NCI-H292 cells, drug in cholesterol-free media with simvastatin 0.04 μM
[6] = NCI-H292 cells, drug in complete media
[7] = complete media vs cholesterol-free media + simvastatin (0.04 μM), >0 enhanced anti-cancer activity, about 0 neutral, <0 antagonist
[8] = NCI-H292 cells, cholesterol-free media without statin, FDA drug library screen
[9] = NCI-H292 cells, complete media, FDA drug library screen
[10] = NCI-H292 cells, FDA drug library screen, cholesterol-free media with simvastatin 0.04 μM
[11] = NCI-H292 cells, FDA drug library screen, complete media
[12] = Complete minus Cholesterol-free, greater than 0 enhanced anti-cancer activity, about 0 neutral, below 0 antagonist
[13] = NCI-H292 cells, FDA drug library screen, cholesterol-free media without statin
[14] = NCI-H292 cells, cholesterol-free media with simvastatin 0.04 μM, FDA drug library screen (TABLE 2)
[15] = NCI-H292 cells, complete media, FDA drug library screen (TABLE 2)
[16] = complete media minus cholesterol-free media + simvastatin (0.04 μM), >0 enhanced anti-cancer activity, about 0 neutral, <0 antagonist
[17] = Complete minus Cholesterol-free, greater than 0 enhanced anti-cancer activity, about 0 neutral, below 0 antagonists
[18] = NCI-H292 cells in cholesterol-free media without statin
[19] = NCI-H292 cells in complete media
[20] = complete media minus cholesterol-free media + simvastatin, >0 enhanced anti-cancer activity, about 0 neutral, <0 antagonist
[21] = complete vs cholesterol-free media, greater than 0 enhanced anti-cancer activity, about 0 neutral, below 0 antagonists
[22] = complete vs cholesterol-free media, >0 enhanced anti-cancer activity, about 0 neutral, <0 antagonist
[23] = complete media vs cholesterol-free media + simvastatin (0.04 μM), […]
[24] = NCI-H292 cells, cholesterol-free media with simvastatin 0.04 μM, cell growth value in FDA drug screen
[25] = NCI-H292 cells, complete media, cell growth value in FDA drug screen
[26] = complete vs cholesterol-free media, […]

O=C(O)c1ccccc1Nc1cccc(C(F)(F)F)c1 [Flufenamic acid]
Difference [1, 3]: −0.24
Cholesterol-free [1, 4]: 1.258
Complete ([1]; NCI-H292 cells, complete media): 1.021
Cholesterol-free media + simvastatin (0.04 μM) [2, 5]: 1.298
Complete Media [2, 6]: 1.077
Difference [2, 7]: −0.22

CC(C)CN(C[C@@H](O)[C@H](Cc1ccccc1)NC(=O)O[C@H]1CO[C@H]2OCC[C@H]21)S(=O)(=O)c1ccc(N)cc1 [Darunavir (Ethanolate)]
Cholesterol-free [1]: 0.8952
Difference [1]: 0.25
Cholesterol-free media + simvastatin (0.04 μM) [2]: 1.545
Complete Media [2]: 1.286
Difference [2]: −0.26

COc1cc(NCc2ccc3nc(N)nc(N)c3c2C)cc(OC)c1OC [Trimetrexate]
Difference [1, 3]: −0.04
Cholesterol-free [1, 8]: 0.1317
Complete [1, 9]: 0.09583
Cholesterol-free media + simvastatin (0.04 μM) [2, 10]: 0.2201
Complete Media [2, 11]: 0.1203
Difference [2, 7]: −0.10

Cc1c(Cl)c(C)[n+]([O-])c(Cl)c1-c1noc(-c2cc(O)c(O)c([N+](=O)[O-])c2)n1 [Opicapone]
Difference [1, 12]: −0.13
Cholesterol-free [1, 13]: 0.8861
Complete [1, 11]: 0.7591
Cholesterol-free media + simvastatin (0.04 μM) [2, 14]: 0.9346
Complete Media [2, 15]: 0.8971
Difference [2, 16]: −0.04

CC(C)(Oc1ccc(C(=O)c2ccc(Cl)cc2)cc1)C(=O)[O-].C[N+](C)(C)CCO [Choline Fenofibrate]
Difference [1, 17]: −0.65
Cholesterol-free [1, 18]: 1.252
Complete [1, 19]: 0.6045
Cholesterol-free media + simvastatin (0.04 μM) [2, 10]: 1.101
Complete Media [2, 11]: 1.295
Difference [2, 20]: 0.19

C[N+]1(C)CCC(OC(=O)C(O)(c2ccccc2)C2CCCC2)C1 (centres unmarked) [Glycopyrrolate]
Difference [1, 3]: 0.02
Cholesterol-free [1, 8]: 0.8111
Complete [1, 9]: 0.8296
Cholesterol-free media + simvastatin (0.04 μM) [2, 10]: 2.314
Difference [2, 16]: −1.08

Cc1[nH]c2ccccc2c1CCNCc1ccc(/C=C/C(=O)NO)cc1 [Panobinostat]
Difference [1, 3]: −0.03
Cholesterol-free [1, 8]: −0.004474
Complete [1, 9]: −0.02997
Cholesterol-free media + simvastatin (0.04 μM) [2, 14]: 0.008426
Complete Media [2, 15]: −0.004725
Difference [2, 16]: −0.01

NC(=O)c1cn(Cc2c(F)cccc2F)nn1 [Rufinamide]
Difference [1, 3]: 0.00
Cholesterol-free [1, 8]: 0.9822
Complete [1, 9]: 0.9785
Cholesterol-free media + simvastatin (0.04 μM) [2, 10]: 0.995
Complete Media [2, 11]: 0.8999
Difference [2, 7]: −0.10

CCCCC(CC)COC(=O)C(C#N)=C(c1ccccc1)c1ccccc1 (centres unmarked) [Octocrylene]
Difference [1, 17]: −0.58
Cholesterol-free [1, 18]: 1.541
Complete [1, 19]: 0.9621
Cholesterol-free media + simvastatin (0.04 μM) [2, 10]: 1.183
Complete Media [2, 11]: 1.029
Difference [2, 7]: −0.15

Nc1nc2c(ncn2CCC(CO)CO)c(=O)[nH]1 [Penciclovir]
Cholesterol-free [1, 4]: 0.9605
Complete ([1]; NCI-H292 cells, complete media): 0.6394
Difference [1, 21]: −0.32
Cholesterol-free media + simvastatin (0.04 μM) [2, 14]: 1.351
Complete Media [2, 15]: 1.353
Difference [2, 16]: 0.00

CNCCc1ccccn1.CS(=O)(=O)O.CS(=O)(=O)O [Betahistine (mesylate)]
Cholesterol-free [1, 4]: 1.235
Complete ([1]; NCI-H292 cells, complete media): 0.8713
Difference [1, 21]: −0.36
Cholesterol-free media + simvastatin (0.04 μM) [2, 14]: 1.015
Complete Media [2, 15]: 1.025
Difference [2, 16]: 0.01

O=C([O-])CCCc1ccccc1.[Na+] [Sodium 4-phenylbutyrate]
Cholesterol-free [1, 8]: 0.7629
Complete [1, 9]: 1.099
Difference [1, 22]: 0.34
Cholesterol-free media + simvastatin (0.04 μM) [2, 5]: 1.094
Complete Media [2, 6]: 0.9051
Difference [2, 7]: −0.19

Cc1cc(=O)n(-c2ccccc2)n1C [Antipyrine]
Difference ([1]; Complete minus Cholesterol-free, […]): −0.24
Cholesterol-free [1, 4]: 1.066
Complete ([1]; NCI-H292 cells, complete media): 0.8256
Cholesterol-free media + simvastatin (0.04 μM) [2, 10]: 0.9785
Complete Media [2, 11]: 0.8535
Difference [2, 23]: −0.13

CC1CS(=O)(=O)CCN1/N=C/c1ccc([N+](=O)[O-])o1 (centres unmarked) [Nifurtimox]
Cholesterol-free [1, 4]: 1.443
Complete ([1]; NCI-H292 cells, complete media): 1.102
Difference [1, 21]: −0.34
Cholesterol-free media + simvastatin (0.04 μM) [2, 5]: 1.357
Complete Media [2, 6]: 1.111
Difference [2, 7]: −0.25

Tenofovir alafenamide hemifumarate
Cholesterol-free [1]: 0.4256
Complete [1]: 0.5492
Difference [1]: 0.12
Cholesterol-free media + simvastatin (0.04 μM) [2]: 0.5107
Complete Media [2]: 0.4195
Difference [2]: −0.09

Cc1onc(-c2ccccc2Cl)c1C(=O)N[C@@H]1C(=O)N2[C@@H]1SC(C)(C)[C@@H]2C(=O)O [Cloxacillin (sodium monohydrate)]
Difference [1, 3]: −0.19
Cholesterol-free [1, 4]: 1.114
Complete ([1]; NCI-H292 cells, complete media): 0.9266
Cholesterol-free media + simvastatin (0.04 μM) [2, 24]: 1.045
Complete Media [2, 25]: 1.18
Difference [2, 20]: 0.13

Cc1ncc(OC[C@@]2(c3cccc(F)c3)C[C@H]2C(=O)Nc2ccc(F)cn2)c(C)n1 [Lemborexant]
Cholesterol-free [1, 4]: 1.55
Complete ([1]; NCI-H292 cells, complete media): 1.207
Difference [1, 26]: −0.34
Cholesterol-free media + simvastatin (0.04 μM) [2, 10]: 1.185
Complete Media [2, 11]: 1.038
Difference [2, 23]: −0.15

Guanethidine (sulfate)
Cholesterol-free [1]: 1.619
Complete [1]: 1.336
Difference [1]: −0.28
Cholesterol-free media + simvastatin (0.04 μM) [2]: 1.914
Complete Media [2]: 1.674
Difference [2]: −0.24

Cc1onc(-c2ccccc2)c1-c1ccc(S(N)(=O)=O)cc1 [Valdecoxib]
Difference [1, 3]: 0.02
Cholesterol-free [1, 8]: 0.9021
Complete [1, 9]: 0.9224
Cholesterol-free media + simvastatin (0.04 μM) [2, 24]: 0.9234
Complete Media [2, 25]: 0.9538
Difference [2, 20]: 0.03

CC(C(=O)O)c1ccc2c(c1)Cc1cccnc1O2 (centres unmarked) [Pranoprofen]
Cholesterol-free [1, 8]: 0.6134
Complete [1, 9]: 1.137
Difference [1, 22]: 0.52
Cholesterol-free media + simvastatin (0.04 μM) ([2]; NCI-H292 cells, FDA library drug in cholesterol-free media with simvastatin 0.04 μM): 1.474
Complete Media ([2]; NCI-H292 cells, FDA library drug in complete media): 1.136
Difference [2, 7]: −0.34

Guanabenz (Acetate)
Cholesterol-free [1]: 0.8753
Complete [1]: 0.6073
Difference [1]: −0.27
Cholesterol-free media + simvastatin (0.04 μM) [2]: 1.185
Complete Media [2]: 0.9697
Difference [2]: −0.22

NC12CC3CC(CC(C3)C1)C2 [Amantadine (hydrochloride)]
Cholesterol-free [1, 8]: 0.9565
Complete [1, 9]: 1.419
Difference [1, 26]: 0.46
Cholesterol-free media + simvastatin (0.04 μM) [2, 5]: 1.14
Complete Media [2, 6]: 0.9614
Difference [2, 23]: −0.18

CC(C)OC(=O)[C@H](C)N[P@](=O)(CO[C@H](C)Cn1cnc2c(N)ncnc21)Oc1ccccc1 [Tenofovir alafenamide fumarate]
Cholesterol-free [1]: 0.8261
Complete [1]: 0.7078
Difference [1]: −0.12
Cholesterol-free media + simvastatin (0.04 μM) [2]: 0.9223
Complete Media [2]: 0.8712
Difference [2]: −0.05

CCN[C@H]1CN(CCCOC)S(=O)(=O)c2sc(S(N)(=O)=O)cc21 [Brinzolamide]
Difference [1, 3]: 0.00
Cholesterol-free [1, 8]: 0.8738
Complete [1, 9]: 0.876
Cholesterol-free media + simvastatin (0.04 μM) [2, 24]: 1.105
Complete Media [2, 25]: 1.197
Difference [2, 20]: 0.09

O=C(O)CSCC(=O)NC1CCSC1=O (centres unmarked) [Erdosteine]
Difference [1, 3]: 0.06
Cholesterol-free [1, 8]: 1.459
Complete [1, 9]: 1.516
Cholesterol-free media + simvastatin (0.04 μM) [2, 24]: 1.196
Complete Media [2, 25]: 1.238
Difference [2, 20]: 0.04

CCCCc1oc2ccc(NS(C)(=O)=O)cc2c1C(=O)c1ccc(OCCCN(CCCC)CCCC)cc1 [Dronedarone (Hydrochloride)]
Cholesterol-free [1, 8]: 0.4604
Difference [1, 22]: 0.28
Complete Media [2, 25]: 0.8231
Difference [2, 20]: 0.06

Cc1cn(-c2cc(NC(=O)c3ccc(C)c(Nc4nccc(-c5cccnc5)n4)c3)cc(C(F)(F)F)c2)cn1
Difference [1, 17]: −0.54
Cholesterol-free [1, 18]: 1.23
Complete [1, 19]: 0.6857
Cholesterol-free media + simvastatin (0.04 μM) [2, 10]: 0.854
Complete Media [2, 11]: 0.7821
Difference [2, 7]: −0.07

CCOc1ccccc1OCCN[C@H](C)Cc1ccc(OC)c(S(N)(=O)=O)c1 [Tamsulosin]
Difference [1, 12]: −0.14
Cholesterol-free [1, 13]: 1.006
Complete [1, 11]: 0.8695
Cholesterol-free media + simvastatin (0.04 μM) [2, 5]: 1.361
Complete Media [2, 6]: 1.178
Difference [2, 7]: −0.18

NCCCC[C@H](N[C@@H](CCc1ccccc1)C(=O)O)C(=O)N1CCC[C@H]1C(=O)O [Lisinopril (dihydrate)]
Difference [1, 12]: −0.08
Cholesterol-free [1, 13]: 1.734
Complete [1, 11]: 1.657
Cholesterol-free media + simvastatin (0.04 μM) [2, 14]: 0.94
Complete Media [2, 15]: 0.9409
Difference [2, 16]: 0.00

CCN(CC)CCNC(=O)c1ccc(NC(C)=O)cc1 [N-Acetylprocainamide]
Cholesterol-free [1, 8]: 1.279
Complete [1, 9]: 1.656
Difference [1, 26]: 0.38
Cholesterol-free media + simvastatin (0.04 μM) [2, 10]: 0.9234
Complete Media [2, 11]: 0.8479
Difference [2, 23]: −0.08
